Entries after “also recorded” stand apart in the source; their conditions may differ.
Experiments:
Assay type in all cases: cell-based, human
[1] = tested on: MDA-MB-231/Vector and MDA-MB-231/Bcl-2 cells; assay: Viability screening assay in MDA-MB-231 cells with high and low Bcl-2 (CellTiter Glo); settings: for Bcl-2 selective reduction in viability, MDA-MB-231/Bcl-2 vs MDA-MB-231/Vector: 10 μM, 24 h, 10% serum
Protocol: In one example, a triple negative breast cancer cell line, MDA-MB-231, was used for screening these libraries. […] At the end of the assay, cell viability was determined using the cell titer Glo assay. […] A hit was defined as a compound inducing more than 20% reduction in viability of MDA-MB-231/Bcl-2 cells, compared to vector controls (MDA-MB-231/Vector). In the next step these shortlisted small molecules were tested for their ability to convert the conformation of Bcl-2 into a pro-apoptotic one.
To screen for Bcl-2 selective compounds, MDA-MB-231 cells (MDA-MB-231/Vector and MDA-MB-231/Bcl-2) were plated at 4000 cells per well in a 96 well black opaque plate. The day after plating the cells, treatment from the library plates was done so as to add 1 μL of the compound into the cells, resulting in 10 μM concentration. For non-specific […], 25 nM of staurosporin was used. […] Post treatment viability was assessed by CellTiter Glo Cell Viability assay (Promega Inc., Madison, Wis.) as per manufacturer instructions.
Viability for test compounds in each cell line (MDA-MB-231/Vector and MDA-MB-231/Bcl-2) was normalized to their respective vehicle treatments. Compounds that had at least 20% less viability in the MDA-MB-231/Bcl-2 cell line than the MDA-MB-231/Vector cell line were selected as initial hits and shortlisted for revalidation. Revalidated compounds were reordered for further testing and characterization. All data analyses were performed using Microsoft Excel.

[2] = tested on: MDA-MB-468 parental and derived paclitaxel or doxorubicin resistant cells; assay: Viability of MDA-MB-468 parental and derived resistant cells; settings: 72 hours
Protocol: Percentage viability relative to vehicle treatment. Representative of three independent assays in triplicate.
Percentage viability relative to vehicle treatment.
Percentage viability relative to vehicle treatment. Representative of three independent assays conducted in triplicate.
(§1) Cells of interest were plated at 2000 cells per well in 96-well black tissue culture plate and allowed to adhere to the plate overnight. Viability assays were performed using 10% serum medium unless otherwise stated. Drugs were diluted in supplemented tissue culture medium and added at increasing concentrations, with DMSO as a vehicle control. Cells were then incubated for either 48 hour or 72 hours in presence of the compound, Promega Titer Glo was added to the wells at the assay end point according to manufacturer's protocol. Luminescence was measured using Tropix TR717 Microplate luminometer. Percentage of viable cells is relative to vehicle (100%). As a complementary viability assay, eBioscience Fixable Viability Dye eFluor 660(65-0864) was used to stain dead cells and analyzed using flow cytometry.

[3] = tested on: Bcl-2 low and high expressing Jurkat lymphoma cells (Jurkat/Vector, Jurkat/Bcl-2); assay: Cell viability in Bcl-2 low and high expressing Jurkat cells; settings: for Effect of Bcl-2 expression on Jurkat cells exposed to cancer therapeutics: Jurkat cells with high and low expression of Bcl-2 (FIG. 9G); for Bcl-2 dependent effects in Jurkat Lymphoma cells: Bcl-2 low and high expressing Jurkat lymphoma cells treated for 72 hours with various concentrations; for minimal effective concentration: Homo sapiens, Jurkat lymphoma cells, 72 hours, n/d means no reduction was detected at concentrations tested, read-out: Lowest effective dose (minimal effective concentration that induced Bcl-2-dependent reduction in cell viability)
[4] = tested on: H460 parental and derived paclitaxel resistant cells; assay: Viability of H460 parental and paclitaxel resistant cells
Protocol: Percentage viability relative to vehicle treatment was calculated. Representative of three independent assays conducted in triplicate.
FIG. […] Percentage viability relative to vehicle treatment. Representative of three independent assays conducted in triplicate.
Representative of three independent assays conducted in triplicate.
Cell lines were obtained from ATCC and maintained according to manufacturer's instructions. The human lung cancer cell line NCI-H460, H69AR (ATCC) were cultured in RPMI medium (Corning) containing 10% FBS. The human breast cancer cell line MDA-MB-231 was cultured in DMEM medium (Corning) containing 10% FBS. All cell lines were maintained at 5% CO2 and 37° C. Paclitaxel resistant H460 cells were derived by treating cells once a week over 6 weeks, initially with 1 nM paclitaxel and then increasing dose incrementally up to 100 nM. Once resistance was confirmed, paclitaxel was withdrawn from the cells. Resistance to paclitaxel was maintained without presence of paclitaxel measured up to 2 months. A parental line was maintained for a similar number of passages as the resistant line. All experiments were performed using cells that had not been treated with paclitaxel in at least three passages.
as §1, with “Cells were then incubated for either 48 hour or 72 hours in presence of the compound, Promega Titer Glo was added to the wells at the assay end point according to manufacturer's protocol.” left out

[5] = tested on: H460 parental and resistant cells; assay: Colony formation (2D clonogenic, 3D soft agar) of H460 parental and resistant cells; settings: 10 nM paclitaxel, continuously for 14 days
Text: Colony forming ability (%) relative to vehicle treatment. Representative of three independent conducted assays in triplicate.

[6] = tested on: H460 parental and resistant cells; assay: Annexin-V apoptosis assay in H460 parental and resistant cells; settings: 10 nM paclitaxel, 48 hours
Protocol: FIG. 25E is the results of Annexin-V apoptosis assay in H460 cells treated for 48 hours with vehicle or paclitaxel 10 nM, quantification right panel.
Cells were seeded into 6 well tissue culture plates to give approximately 50% confluence and allowed to attach overnight. The cells were then treated for a period of time indicated in figure legend with the appropriate compound at various concentrations (see figure legends). An Annexin V-conjugate PerCP-eFluor 710 apoptosis detection kit was used as described by the manufacturer's protocol (eBioscience 88-8008). Harvesting of cells included collection of floating and attached cells following trypsinization. Data were acquired using an CytoFLEX S flow cytometer (Beckman Coulter, Brea, Calif.) and 10,000 events on the PC5.5 channel were analyzed using CytExpert software (Beckman Coulter). For Nur77 GFP tagged annexin V analysis, GFP positive population were selected and then Annexin V+population was determined. For each sample, 10,000 GFP+ events were collected. Annexin V positive cell population was considered to be the apoptotic population, and the percent of annexin V positive cell population was used to determine the extent of apoptosis.

Row | Molecule | Bcl-2 dependent effects in Jurkat Lymphoma cells [3] | minimal effective concentration [3] [µM] | further results
1 | 2-Iodo acetamide [Iodoacetamide, reference compound] |  |  | Bcl-2 selective reduction in viability, MDA-MB-231/Bcl-2 vs MDA-MB-231/Vector [1]: selectively induce more cell death in high-Bcl-2 expressing MDA-MB-231 cells
2 | O=c1[nH]cc(F)c(=O)[nH]1 [5-fluoro uracil, reference compound] |  |  | Cross-resistance of MDA-MB-468 paclitaxel-resistant line [2]: cross-resistant; Effect of Bcl-2 expression on Jurkat cells exposed to cancer therapeutics [3]: Bcl-2 expression protected Jurkat cells
3 | COc1ccc([N+](=O)[O-])cc1CSc1nc2sc3c(c2c(=O)n1-c1ccccc1)CCCC3 [BFC1111, 2-[(2-methoxy-5-nitrobenzyl)thio]-3-phenyl-5,6,7,8-tetrahydro[1] benzothieno[2,3-d]pyrimidin-4(3H)-one] |  |  | Bcl-2 selective reduction in viability, MDA-MB-231/Bcl-2 vs MDA-MB-231/Vector ([1]; listed as BFC1110-A): good Bcl-2 dependent effects in MDA-MB-231 cells; also recorded: comparable Bcl-2 selective induction of cell death as the parent BFC1110; Viability of H460 resistant vs parental line ([4]; 72 hours): reduced viability of resistant line preferentially
4 | Nc1nc(N)c2nc(CNc3ccc(C(=O)N[C@@H](CCC(=O)O)C(=O)O)cc3)cnc2n1 [Compound 1] | Yes | 0.01 | 
5 | CN(Cc1cnc2nc(N)nc(N)c2n1)c1c(Cl)cc(C(=O)N[C@@H](CCC(=O)O)C(=O)O)cc1Cl [Compound 2] | Yes | 0.001 | 
6 | Nc1nc(N)c2nc(CNc3ccc(C(=O)N[C@@H](CC(=O)O)C(=O)O)cc3)cnc2n1 [Compound 3] | Yes | 10 | 
7 | CC(Nc1ccc(C(=O)N[C@@H](CCC(=O)O)C(=O)O)cc1)c1cnc2nc(N)nc(O)c2n1 (some centres unmarked) [Compound 4] | No |  | 
8 | CN(Cc1cnc2nc(N)nc(N)c2n1)c1ccc(C(=O)N[C@@H](CCC(=O)O)C(=O)O)cc1F [Compound 5] | Yes | 0.01 | 
9 | CN(Cc1cnc2nc(N)nc(N)c2n1)c1c(F)cc(C(=O)N[C@@H](CCC(=O)O)C(=O)O)cc1F [Compound 6] | Yes | 0.01 | 
10 | Cc1cc(C(=O)O)cc(C)c1N(C)Cc1cnc2nc(N)nc(N)c2n1 [Compound 7] | No |  | 
11 | C=CCN(Cc1cnc2nc(N)nc(N)c2n1)c1ccc(C(=O)N[C@@H](CCC(=O)O)C(=O)O)cc1 [Compound 8] | Yes | 0.01 | 
12 | CN(Cc1cnc2nc(N)nc(N)c2n1)c1cc(Cl)c(C(=O)N[C@@H](CCC(=O)O)C(=O)O)c(Cl)c1 [Compound 9] | Yes | 1 | 
13 | Nc1nc(N)c2nc(CC3CCCc4cc(C(=O)N[C@@H](CCC(=O)O)C(=O)O)ccc43)cnc2n1 (some centres unmarked) [Compound 10] | Yes | 0.1 | 
14 | CN(Cc1cnc2nc(N)nc(N)c2n1)c1ccc(C(=O)N[C@@H](CCC(=O)O)C(=O)O)c2ccccc12 [Compound 11] | Yes | 0.001 | 
15 | Nc1nc(N)c2nc3c(nc2n1)C(=O)N(c1ccc(C(=O)O)cc1)C3 [Compound 12] | No |  | 
16 | O=P1(N(CCCl)CCCl)NCCCO1 (centres unmarked) [cyclophosphamide, reference compound] |  |  | Effect of Bcl-2 expression on Jurkat cells exposed to cancer therapeutics [3]: Bcl-2 expression protected Jurkat cells
17 | COc1cccc2c1C(=O)c1c(O)c3c(c(O)c1C2=O)C[C@@](O)(C(=O)CO)C[C@@H]3O[C@H]1C[C@H](N)[C@H](O)[C@H](C)O1 [doxorubicin, reference compound] |  |  | Cross-resistance of MDA-MB-468 paclitaxel-resistant line [2]: cross-resistant; Susceptibility of H460 paclitaxel resistant line (cross resistance) ([4]; viability assays and colony formation assays): paclitaxel resistant line was also less susceptible to doxorubicin treatment; Effect of Bcl-2 expression on Jurkat cells exposed to cancer therapeutics [3]: Bcl-2 expression protected Jurkat cells
18 | Nc1ccn([C@@H]2O[C@H](CO)[C@@H](O)C2(F)F)c(=O)n1 [gemcitabine, reference compound] |  |  | Effect of Bcl-2 expression on Jurkat cells exposed to cancer therapeutics [3]: Bcl-2 expression protected Jurkat cells
19 | CS(=O)(=O)CCNCc1ccc(-c2ccc3ncnc(Nc4ccc(OCc5cccc(F)c5)c(Cl)c4)c3c2)o1 [lapatinib, reference compound] |  |  | Effect of Bcl-2 expression on Jurkat cells exposed to cancer therapeutics [3]: Bcl-2 expression protected Jurkat cells
20 | CC(=O)O[C@H]1C(=O)[C@@]2(C)[C@H]([C@H](OC(=O)c3ccccc3)[C@]3(O)C[C@H](OC(=O)[C@H](O)[C@@H](NC(=O)c4ccccc4)c4ccccc4)C(C)=C1C3(C)C)[C@]1(OC(C)=O)CO[C@@H]1C[C@@H]2O [paclitaxel, reference compound] |  |  | Viability of MDA-MB-231 cells expressing pcDNA vector or Bcl-2 ([1]; paclitaxel 10 nM): reduced viability of MDA-MB-231 cells transfected with pcDNA vector, while Bcl-2 transfected MDA-MB-231 cells were partially resistant; Viability of MDA-MB-468 parental and paclitaxel resistant lines ([2]; paclitaxel): derived resistant line viability was unaffected by 50 nM, however parental line was sensitive; Colony formation in 2D and 3D soft agar assays, H460 parental and resistant [5]: inhibited the parental cells ability to form colonies in 2D and 3D soft agar assays, while resistant lines tumorigenicity was unchanged; Reduction of viability of H460 parental cells ([4]; paclitaxel, 72 hours): 90%; Viability of H460 paclitaxel resistant line ([4]; paclitaxel, 72 hours): unaffected; Induction of apoptosis (Annexin V), H460 resistant vs parental [6]: minimal induction of apoptosis in the derived H460 resistant line compared to parental sensitive line

— patent US11419843B2, “Small molecule BCL-2 functional converters as cancer therapeutics” (Oregon State University, priority 2016, dated 2022)
